Biological target: CD28/CD80 binding (Homo sapiens, UniProt P10747)
Experiment: AFM measurement of binding force between imm-CD28 on chips and afm-CD80 on probe, blocking by drug
Source text: (a) Immobilizing receptor and ligand [11]: At least one receptor is immobilized on a surface of each one of a plurality of chips and at least one ligand to the receptor is immobilized on a surface of a probe of an AFM. Therein, the chip can be extended to a micro-array chip immobilized with different kinds of receptors.
(b) Binding drug to receptor [12]: A drug is flowed through the chip to bind the drug to the receptor.
(c) Measuring binding force: The AFM is used to processing point-to-point detection for acquiring blocking effect by the drug according to the binding forces between the receptor and the ligand. If the binding force between the drug and the receptor is bigger than the binding force between the receptor and the ligand, the drug is identified as capable of breaking the bond between the receptor and the ligand, vice versa.
Take immuno-suppressive agent as an example. In FIG. 2, a receptor of T-cell membrane, CD28, is immobilized on chips, which is a protein labeled as imm-CD28 [21]. A ligand to CD28, ligand-CD80, is immobilized on a probe of an AFM, which is a receptor on immune B-cell membrane and is labeled as afm-CD80 [31]. Since the binding between CD80 and CD28 is related to human anaphylactic reaction, a small-molecule drug can be applied to block the binding between CD28 and CD80 for reducing immuno-reaction and anaphylactic reaction if the binding force between the drug and CD28 is bigger than that between CD80 and CD28.
Take an immuno-suppressive drug candidate, cynarin, as an example. The imm-CD28 [21] is immobilized on the chips and the afm-CD80 [31] is immobilized on the probe. Then the drug candidate, cynarin, is flowed through the chips to be bond with imm-CD28 [21] and separated from other components. In FIG. 3, a binding force (q1) between CD28 and CD80 on afm-CD80 [31] is great before adding cynarin. After adding the effective immuno-suppressive drug candidate 3, cynarin, the bond between CD28 and CD80 is blocked to form a very small binding force (q2). That is, q1>>q2. […]

Chain of CD28/CD80 binding (P10747 19-152 limits assumed): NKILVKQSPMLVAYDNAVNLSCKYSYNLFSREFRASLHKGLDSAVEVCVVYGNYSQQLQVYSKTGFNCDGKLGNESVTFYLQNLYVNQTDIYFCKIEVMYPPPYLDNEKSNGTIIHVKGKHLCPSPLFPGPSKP

## O=C(/C=C/c1ccc(O)c(O)c1)O[C@@H]1C[C@@](OC(=O)/C=C/c2ccc(O)c(O)c2)(C(=O)O)C[C@@H](O)[C@@H]1O [cynarin]
167 pN−90 pN
  difference between the binding forces before and after adding cynarin (q1−q2): about 77 pN
After adding cynarin, average of 100 positions on chip, before adding about 167 pN±14 (q1), FIG. 4B
  average binding force between CD28 and CD80 after adding cynarin (q2): about 90 pN
Relative to q1 167 pN
  difference between the binding forces before and after adding cynarin, percent: ~46%

Reference: US20130029858A1, “Method of Drug Screening through Quantitative Detection by Atomic Force Microscopy and Effective Protein Chips Development through Method Thereof” (NATIONAL APPLIED RESEARCH LABORATORIES, priority 2011, published 2013)
